Measurements: the NIST ThermoML archive (doi:10.1021/je0502400)
Numbers after ± are expanded uncertainties.

How the values were obtained:
[1] = mn = molality of the nth substance listed, in mol/kg; conditions: 298 K, 101 kPa, Liquid
[2] = molar heat capacity at constant pressure; mn = molality of the nth substance listed, in mol/kg; conditions: 298.15 K, 101 kPa, Liquid, Flow calorimetry

O=C([O-])CCC(=O)[O-].[Na+].[Na+] [disodium succinate] + O
Conditions | mass density, [1] [kg/m3] | molar heat capacity at constant pressure, [2] [J/K/mol]
m1 = 0.009952 | 998.141 ± 0.21 | 75.32 ± 0.16
m1 = 0.02038 | 999.243 ± 0.21 | 75.31 ± 0.16
m1 = 0.04187 | 1001.53 ± 0.21 | 75.28 ± 0.16
m1 = 0.06054 | 1003.53 ± 0.21 | 75.26 ± 0.16
m1 = 0.1003 | 1007.7 ± 0.22 | 75.22 ± 0.16
m1 = 0.2003 | 1018 ± 0.24 | 75.2 ± 0.16
m1 = 0.3001 | 1028.05 ± 0.26 | 75.23 ± 0.16
m1 = 0.5006 | 1047.46 ± 0.29 | 75.44 ± 0.16
m1 = 0.7497 | 1070.41 ± 0.34 | 75.93 ± 0.16
m1 = 1 | 1092.29 ± 0.38 | 76.61 ± 0.16
m1 = 1.494 | 1132.32 ± 0.47 | 78.38 ± 0.17
m1 = 1.999 | 1169.44 ± 0.55 | 80.61 ± 0.17

O=C([O-])C(=O)[O-].[K+].[K+] [potassium oxalate] + O
Conditions | mass density, [1] [kg/m3] | molar heat capacity at constant pressure, [2] [J/K/mol]
m1 = 0.01029 | 998.319 ± 0.22 | 75.17 ± 0.16
m1 = 0.01993 | 999.506 ± 0.21 | 75 ± 0.16
m1 = 0.03995 | 1001.9 ± 0.21 | 74.67 ± 0.16
m1 = 0.06118 | 1004.41 ± 0.22 | 74.34 ± 0.16
m1 = 0.1011 | 1009.21 ± 0.23 | 73.71 ± 0.16
m1 = 0.1971 | 1020.46 ± 0.24 | 72.27 ± 0.15
m1 = 0.2996 | 1032.09 ± 0.26 | 70.86 ± 0.15
m1 = 0.501 | 1054.2 ± 0.3 | 68.3 ± 0.15
m1 = 0.7483 | 1080.17 ± 0.35 | 65.5 ± 0.14
m1 = 0.9987 | 1105.27 ± 0.39 | 63 ± 0.13
m1 = 1.197 | 1124.39 ± 0.43 | 61.21 ± 0.13
m1 = 1.396 | 1142.79 ± 0.47 | 59.54 ± 0.13
m1 = 1.497 | 1151.71 ± 0.48 | 58.76 ± 0.13

O=C([O-])CC(=O)[O-].[Na+].[Na+] [sodium malonate] + O
Conditions | mass density, [1] [kg/m3] | molar heat capacity at constant pressure, [2] [J/K/mol]
m1 = 0.0102 | 998.203 ± 0.21 | 75.19 ± 0.16
m1 = 0.02019 | 999.271 ± 0.21 | 75.06 ± 0.16
m1 = 0.04023 | 1001.44 ± 0.21 | 74.8 ± 0.16
m1 = 0.05997 | 1003.61 ± 0.21 | 74.54 ± 0.16
m1 = 0.09952 | 1007.82 ± 0.22 | 74.04 ± 0.16
m1 = 0.2049 | 1018.85 ± 0.24 | 72.81 ± 0.16
m1 = 0.3005 | 1028.55 ± 0.26 | 71.8 ± 0.15
m1 = 0.4985 | 1048.21 ± 0.29 | 69.9 ± 0.15
m1 = 0.7356 | 1070.79 ± 0.34 | 68.01 ± 0.15
m1 = 0.9746 | 1092.13 ± 0.38 | 66.27 ± 0.14
m1 = 1.481 | 1134.8 ± 0.47 | 63.33 ± 0.13
m1 = 1.995 | 1173.58 ± 0.55 | 61.03 ± 0.13
m1 = 2.993 | 1241.78 ± 0.69 | –
m1 = 3.991 | 1296.36 ± 0.81 | –

[Cl-].[Na+] [sodium chloride] + O
Conditions | mass density, m1 = 0.9998 [kg/m3] | mass density, m1 = 1.999 [kg/m3] | mass density, m1 = 3 [kg/m3] | molar heat capacity at constant pressure, m1 = 0.9998 [J/K/mol] | molar heat capacity at constant pressure, m1 = 1.999 [J/K/mol] | molar heat capacity at constant pressure, m1 = 3 [J/K/mol]
[1] | 1036.18 ± 0.15 | 1072.22 ± 0.18 | 1105.7 ± 0.22 | – | – | –
[2] | – | – | – | 73.34 ± 0.16 | 72.23 ± 0.15 | 71.74 ± 0.15

O=C([O-])C(=O)[O-].[Na+].[Na+] [sodium oxalate] + O
Conditions | mass density, [1] [kg/m3] | molar heat capacity at constant pressure, [2] [J/K/mol]
m1 = 0.009986 | 998.164 ± 0.21 | 75.31 ± 0.16
m1 = 0.01989 | 999.268 ± 0.21 | 75.27 ± 0.16
m1 = 0.03998 | 1001.48 ± 0.21 | 75.22 ± 0.16
m1 = 0.0603 | 1003.67 ± 0.21 | 75.17 ± 0.16
m1 = 0.09999 | – | 75.08 ± 0.16
m1 = 0.1502 | 1013.28 ± 0.23 | 75 ± 0.16
m1 = 0.1996 | 1018.42 ± 0.23 | 74.93 ± 0.16
m1 = 0.2494 | 1023.55 ± 0.24 | 74.88 ± 0.16
